In ChEMBL document CHEMBL1130027, “Improved P1/P1' substituents for cyclic urea based HIV-1 protease inhibitors: synthesis, structure-activity relationship, and X-ray crystal structure analysis” (J Med Chem, 1997):

Experiments:
[1] = test system: MT2; experiment: Cellular antiviral activity (IC90) assessed on human MT-2 cells infected with HIV-RF; format: functional
[2] = target: Human immunodeficiency virus type 1 protease (Human immunodeficiency virus 1, UniProt Q72874); experiment: Compound was tested for binding affinity against HIV-1 Protease
[3] = In vivo evaluation of maximum plasma concentration at a dose of 10 mg/kg; format: ADME, organism-based; parameters: dose 10 mg/kg
[4] = The half life in dog; format: ADME, organism-based, Canis lupus familiaris; conditions: in vivo
[5] = Oral bioavailability in dog; format: ADME, organism-based, Canis lupus familiaris; conditions: in vivo

Structure (SMILES) | IC90 [1] [nM] | Ki [2] [nM] | Cmax [3] [µg/mL] | half-life [4] [min] | bioavailability [5] [%]
O=C1N(Cc2ccccc2)[C@H](Cc2ccc3ccccc3c2)[C@H](O)[C@@H](O)[C@@H](Cc2ccc3ccccc3c2)N1Cc1ccccc1 | 3200 | – | – | – | –
CC(=O)c1cccc(CN2C(=O)N(Cc3cccc(C(C)=O)c3)[C@H](Cc3ccc4c(c3)N(C)CCO4)[C@H](O)[C@@H](O)[C@H]2Cc2ccc3c(c2)N(C)CCO3)c1 | 16.4 | 0.08 | – | – | –
O=C1N(Cc2ccc3ccccc3c2)[C@H](Cc2ccc3c(c2)OCCO3)[C@H](O)[C@@H](O)[C@@H](Cc2ccc3c(c2)OCCO3)N1Cc1ccc2ccccc2c1 | 98 | 0.04 | – | – | –
CNc1cccc(CN2C(=O)N(Cc3cccc(NC)c3)[C@H](Cc3ccc4c(c3)OCCO4)[C@H](O)[C@@H](O)[C@H]2Cc2ccc3c(c2)OCCO3)c1 | 8.7 | 0.14 | 0.22 | 48 | 4.6
O=C1N(Cc2ccc(CO)cc2)[C@H](Cc2ccc3c(c2)OCCO3)[C@H](O)[C@@H](O)[C@@H](Cc2ccc3c(c2)OCCO3)N1Cc1ccc(CO)cc1 | 83 | 0.05 | – | – | –
CNc1cccc(CN2C(=O)N(Cc3cccc(NC)c3)[C@H](Cc3ccc4c(c3)CCO4)[C@H](O)[C@@H](O)[C@H]2Cc2ccc3c(c2)CCO3)c1 | 61.6 | 0.2 | – | – | –
COc1cc(C[C@@H]2[C@H](O)[C@@H](O)[C@@H](Cc3cc(OC)cc(OC)c3)N(Cc3ccccc3)C(=O)N2Cc2ccccc2)cc(OC)c1 | > 5000 | 8 | – | – | –
COc1ccc(C[C@@H]2[C@H](O)[C@@H](O)[C@@H](Cc3ccc(OC)c(OC)c3)N(Cc3ccccc3)C(=O)N2Cc2ccccc2)cc1OC | 640 | 6.4 | – | – | –
Nc1cccc(CN2C(=O)N(Cc3cccc(N)c3)[C@H](Cc3ccc4c(c3)OCCO4)[C@H](O)[C@@H](O)[C@H]2Cc2ccc3c(c2)OCCO3)c1 | 40 | 0.04 | – | – | –
O=C1N(Cc2ccc(O)cc2)[C@H](Cc2ccc3c(c2)OCCO3)[C@H](O)[C@@H](O)[C@@H](Cc2ccc3c(c2)OCCO3)N1Cc1ccc(O)cc1 | 107 | 0.03 | – | – | –
O=C1N(Cc2ccccc2)[C@H](Cc2ccccc2)[C@H](O)[C@@H](O)[C@@H](Cc2ccccc2)N1Cc1ccccc1 | 790 | – | – | – | –
CC(=O)c1cccc(CN2C(=O)N(Cc3cccc(C(C)=O)c3)[C@H](Cc3ccc4c(c3)OCCO4)[C@H](O)[C@@H](O)[C@H]2Cc2ccc3c(c2)OCCO3)c1 | 4.2 | 0.04 | – | – | –
CC(=O)c1cc(CN2C(=O)N(Cc3ccc(F)c(C(C)=O)c3)[C@H](Cc3ccc4c(c3)OCO4)[C@H](O)[C@@H](O)[C@H]2Cc2ccc3c(c2)OCO3)ccc1F | 265 | 1.5 | – | – | –
CC(=O)c1cccc(CN2C(=O)N(Cc3cccc(C(C)=O)c3)[C@H](Cc3ccc4c(c3)CCO4)[C@H](O)[C@@H](O)[C@H]2Cc2ccc3c(c2)CCO3)c1 | 10 | 0.048 | – | – | –
CN1CCOc2ccc(C[C@@H]3[C@H](O)[C@@H](O)[C@@H](Cc4ccc5c(c4)N(C)CCO5)N(Cc4ccccc4)C(=O)N3Cc3ccccc3)cc21 | 218 | 0.7 | – | – | –
CC(=O)c1cccc(CN2C(=O)N(Cc3cccc(C(C)=O)c3)[C@H](Cc3ccc4c(c3)OCO4)[C@H](O)[C@@H](O)[C@H]2Cc2ccc3c(c2)OCO3)c1 | 14.7 | 0.043 | – | – | –
CC(=O)c1cc(CN2C(=O)N(Cc3ccc(F)c(C(C)=O)c3)[C@H](Cc3ccc4c(c3)OCCO4)[C@H](O)[C@@H](O)[C@H]2Cc2ccc3c(c2)OCCO3)ccc1F | 84 | 0.64 | – | – | –
COc1cc(C[C@@H]2[C@H](O)[C@@H](O)[C@@H](Cc3cc(OC)cc(OC)c3)N(Cc3cccc(C(C)=O)c3)C(=O)N2Cc2cccc(C(C)=O)c2)cc(OC)c1 | 46.4 | 0.4 | – | – | –
CNc1cccc(CN2C(=O)N(Cc3cccc(N)c3)[C@H](Cc3ccc4c(c3)OCCO4)[C@H](O)[C@@H](O)[C@H]2Cc2ccc3c(c2)OCCO3)c1 | 27 | 0.11 | – | – | –
O=C1N(Cc2ccccc2)[C@H](Cc2ccc3c(c2)CCO3)[C@H](O)[C@@H](O)[C@@H](Cc2ccc3c(c2)CCO3)N1Cc1ccccc1 | 305 | – | – | – | –
O=C1N(CC2CC2)[C@H](Cc2ccc3c(c2)OCCO3)[C@H](O)[C@@H](O)[C@@H](Cc2ccc3c(c2)OCCO3)N1CC1CC1 | 928 | 0.27 | – | – | –
O=C1N(Cc2ccccc2)[C@H](Cc2ccc3c(c2)OCCO3)[C@H](O)[C@@H](O)[C@@H](Cc2ccc3c(c2)OCCO3)N1Cc1ccccc1 | 112 | 0.44 | – | – | –
O=C1N(Cc2ccccc2)[C@H](Cc2ccc3c(c2)OCO3)[C@H](O)[C@@H](O)[C@@H](Cc2ccc3c(c2)OCO3)N1Cc1ccccc1 | 504 | 1 | – | – | –
Nc1cccc(CN2C(=O)N(Cc3cccc(N)c3)[C@H](Cc3ccc4c(c3)CCO4)[C@H](O)[C@@H](O)[C@H]2Cc2ccc3c(c2)CCO3)c1 | 30.6 | 0.11 | – | – | –
